Results: ChEMBL document CHEMBL3870340, “Cytotoxic activity, apoptosis induction and structure-activity relationship of 8-OR-2-aryl-3,4-dihydroisoquinolin-2-ium salts as promising anticancer agents” (Bioorg Med Chem Lett, 2017)

How the values were obtained:
[1] = Cytotoxicity against human NB4 cells assessed as decrease in cell viability after 48 hrs by MTT assay; type: functional, cell-based; details: NB-4, 48 h
[2] = Cytotoxicity against human MKN45 cells assessed as decrease in cell viability after 48 hrs by MTT assay; type: functional, cell-based; details: MKN-45, 48 h
[3] = Antiproliferative activity against human MKN45 cells at 20 uM after 48 hrs by MTT assay relative to control; type: functional; details: MKN-45, 48 h, read-out: GI
[4] = Antiproliferative activity against human NB4 cells at 5 uM after 48 hrs by MTT assay relative to control; type: functional; details: NB-4, 48 h, read-out: GI
[5] = Cytotoxicity against primary goat fetal fibroblast assessed as decrease in cell viability after 48 hrs by MTT assay; type: toxicity; details: goat (Capra hircus), primary goat fetal fibroblasts
[6] = Cytotoxicity against primary porcine fetal kidney cells assessed as decrease in cell viability after 48 hrs by MTT assay; type: toxicity, cell-based; details: pig (Sus scrofa)

## COc1cccc2c1C=[N+](c1cccc(I)c1)CC2
[1]
  IC50: 1.67 µM
[2]
  IC50: 11.4 µM
[3]
  inhibition of growth at 20 µM: 73%
[4]
  inhibition of growth at 5 µM: 45.3%
[5]
  IC50 at 48 h: 2.67 µM
[6]
  IC50 at 48 h: 4.57 µM

## COc1cccc2c1C=[N+](c1ccc(C)cc1)CC2
[3]
  inhibition of growth at 20 µM: 4.7%
[4]
  inhibition of growth at 5 µM: 17.7%

## COc1cccc2c1C=[N+](c1ccccc1C#N)CC2
[1]
  IC50: 6.97 µM
[2]
  IC50: 4.61 µM
[3]
  inhibition of growth at 20 µM: 51.1%
[4]
  inhibition of growth at 5 µM: 30.4%

## COc1cccc2c1C=[N+](c1ccccc1C(F)(F)F)CC2
[1]
  IC50: 3.06 µM
[2]
  IC50: 2.92 µM
[3]
  inhibition of growth at 20 µM: 85%
[4]
  inhibition of growth at 5 µM: 59.3%

## COc1cccc2c1C=[N+](c1ccc(Cl)cc1Cl)CC2
[1]
  IC50: 1.99 µM
[2]
  IC50: 3.55 µM
[3]
  inhibition of growth at 20 µM: 88.2%
[4]
  inhibition of growth at 5 µM: 54.7%

## COc1cccc2c1C=[N+](c1cccc(F)c1)CC2
[1]
  IC50: 18.8 µM
[2]
  IC50: 11.3 µM
[3]
  inhibition of growth at 20 µM: 80.6%
[4]
  inhibition of growth at 5 µM: 37.6%

## COc1cccc2c1C=[N+](c1cccc([N+](=O)[O-])c1)CC2
[1]
  IC50: 2.83 µM
[2]
  IC50: 13.7 µM
[3]
  inhibition of growth at 20 µM: 67.1%
[4]
  inhibition of growth at 5 µM: 40.3%

## COc1cccc2c1C=[N+](c1c(F)cccc1F)CC2
[1]
  IC50: 3.9 µM
[2]
  IC50: 8.43 µM
[3]
  inhibition of growth at 20 µM: 80.5%
[4]
  inhibition of growth at 5 µM: 48.9%

## COc1cccc2c1C=[N+](c1ccc(O)cc1)CC2
[3]
  inhibition of growth at 20 µM: 5.4%
[4]
  inhibition of growth at 5 µM: 4.7%

## COc1cccc2c1C=[N+](c1ccc(I)cc1)CC2
[1]
  IC50: 8.59 µM
[2]
  IC50: 4.26 µM
[3]
  inhibition of growth at 20 µM: 71.1%
[4]
  inhibition of growth at 5 µM: 51.8%

## COc1cccc2c1C=[N+](c1ccc(I)cc1F)CC2
[1]
  IC50: 3.64 µM
[2]
  IC50: 7.98 µM
[3]
  inhibition of growth at 20 µM: 89%
[4]
  inhibition of growth at 5 µM: 54.8%

## COc1cccc2c1C=[N+](c1ccccc1Br)CC2
[1]
  IC50: 5.3 µM
[2]
  IC50: 6.89 µM
[3]
  inhibition of growth at 20 µM: 86.8%
[4]
  inhibition of growth at 5 µM: 48.6%

## COc1cccc2c1C=[N+](c1cccc(O)c1)CC2
[3]
  inhibition of growth at 20 µM: 24.5%
[4]
  inhibition of growth at 5 µM: 24.2%

## COc1cccc2c1C=[N+](c1ccccc1)CC2
[3]
  inhibition of growth at 20 µM: 14.4%
[4]
  inhibition of growth at 5 µM: 20.5%

## COc1cccc2c1C=[N+](c1ccc(Br)cc1Br)CC2
[1]
  IC50: 2.46 µM
[2]
  IC50: 4.53 µM
[3]
  inhibition of growth at 20 µM: 51.9%
[4]
  inhibition of growth at 5 µM: 61.4%

## COc1cccc2c1C=[N+](c1cccc(C#N)c1)CC2
[1]
  IC50: 3.66 µM
[2]
  IC50: 7.13 µM
[3]
  inhibition of growth at 20 µM: 83.4%
[4]
  inhibition of growth at 5 µM: 39.6%

## COc1cccc2c1C=[N+](c1ccc(Cl)cc1)CC2
[3]
  inhibition of growth at 20 µM: 12.3%
[4]
  inhibition of growth at 5 µM: 23.1%

## COc1cccc2c1C=[N+](c1ccc(Br)cc1)CC2
[1]
  IC50: 6.12 µM
[2]
  IC50: 11 µM
[3]
  inhibition of growth at 20 µM: 96.8%
[4]
  inhibition of growth at 5 µM: 59.4%

## Oc1cccc2c1C=[N+](c1ccccc1I)CC2
[3]
  inhibition of growth at 20 µM: 30.9%
[4]
  inhibition of growth at 5 µM: 22.9%

## COc1cccc2c1C=[N+](c1ccccc1C)CC2
[3]
  inhibition of growth at 20 µM: 30.5%
[4]
  inhibition of growth at 5 µM: 3.4%

## COc1cccc([N+]2=Cc3c(cccc3OC)CC2)c1
[1]
  IC50: 22.8 µM
[2]
  IC50: 15.1 µM
[3]
  inhibition of growth at 20 µM: 66.2%
[4]
  inhibition of growth at 5 µM: 22.8%

## COc1cccc2c1C=[N+](c1ccc(Br)cc1F)CC2
[1]
  IC50: 3.62 µM
[2]
  IC50: 6.95 µM
[3]
  inhibition of growth at 20 µM: 69.2%
[4]
  inhibition of growth at 5 µM: 56.9%

## COc1cccc2c1C=[N+](c1ccccc1[N+](=O)[O-])CC2
[3]
  inhibition of growth at 20 µM: 3%
[4]
  inhibition of growth at 5 µM: 10.5%

## COc1cccc2c1C=[N+](c1ccc(F)cc1)CC2
[1]
  IC50: 23.8 µM
[2]
  IC50: 21 µM
[3]
  inhibition of growth at 20 µM: 53%
[4]
  inhibition of growth at 5 µM: 40.2%

## COc1ccc2c(c[n+](C)c3c4cc5c(cc4ccc23)OCO5)c1OC [CHELERYTHRINE]
[1]
  IC50: 1.49 µM
[2]
  IC50: 12.7 µM
[3]
  inhibition of growth at 20 µM: 92.7%
[4]
  inhibition of growth at 5 µM: 88.4%

## COc1cccc2c1C=[N+](c1ccc(C#N)cc1)CC2
[1]
  IC50: 3.49 µM
[2]
  IC50: 3.56 µM
[3]
  inhibition of growth at 20 µM: 81.2%
[4]
  inhibition of growth at 5 µM: 36.4%

## COc1cccc2c1C=[N+](c1ccccc1Cl)CC2
[1]
  IC50: 9.29 µM
[2]
  IC50: 7.21 µM
[3]
  inhibition of growth at 20 µM: 84%
[4]
  inhibition of growth at 5 µM: 47.6%

## COc1cccc2c1C=[N+](c1ccccc1F)CC2
[1]
  IC50: 4.55 µM
[2]
  IC50: 6.64 µM
[3]
  inhibition of growth at 20 µM: 67.5%
[4]
  inhibition of growth at 5 µM: 42%

## COc1cccc2c1C=[N+](c1ccccc1O)CC2
[3]
  inhibition of growth at 20 µM: 8.4%
[4]
  inhibition of growth at 5 µM: 0.6%

## COc1ccc([N+]2=Cc3c(cccc3OC)CC2)cc1
[3]
  inhibition of growth at 20 µM: 0.7%
[4]
  inhibition of growth at 5 µM: 6.6%

## CC(=O)Oc1cccc2c1C=[N+](c1ccccc1I)CC2
[3]
  inhibition of growth at 20 µM: 3.4%
[4]
  inhibition of growth at 5 µM: 15%

## CCOc1cccc2c1C=[N+](c1ccccc1I)CC2
[3]
  inhibition of growth at 20 µM: 82.2%
[4]
  inhibition of growth at 5 µM: 49.7%

## COc1cccc2c1C=[N+](c1cc(Cl)cc(Cl)c1)CC2
[1]
  IC50: 2.65 µM
[2]
  IC50: 3.61 µM
[3]
  inhibition of growth at 20 µM: 86.4%
[4]
  inhibition of growth at 5 µM: 55.8%

## COc1cccc2c1C=[N+](c1ccc(C(F)(F)F)cc1)CC2
[1]
  IC50: 2.58 µM
[2]
  IC50: 7.07 µM
[3]
  inhibition of growth at 20 µM: 83.4%
[4]
  inhibition of growth at 5 µM: 53.3%

## COc1cccc2c1C=[N+](c1cccc(Cl)c1)CC2
[1]
  IC50: 22.4 µM
[2]
  IC50: 9.99 µM
[3]
  inhibition of growth at 20 µM: 73.3%
[4]
  inhibition of growth at 5 µM: 35.1%

## COc1ccccc1[N+]1=Cc2c(cccc2OC)CC1
[3]
  inhibition of growth at 20 µM: 15%
[4]
  inhibition of growth at 5 µM: 2.1%

## COc1cccc2c1C=[N+](c1cccc(C)c1)CC2
[2]
  IC50: 8.57 µM
[3]
  inhibition of growth at 20 µM: 79.6%
[4]
  inhibition of growth at 5 µM: 3.1%

## Ic1ccccc1[N+]1=Cc2c(cccc2OCc2ccccc2)CC1
[1]
  IC50: 2.65 µM
[2]
  IC50: 1.99 µM
[3]
  inhibition of growth at 20 µM: 91.5%
[4]
  inhibition of growth at 5 µM: 78.2%

## COc1cccc2c1C=[N+](c1cccc(Br)c1)CC2
[1]
  IC50: 4.62 µM
[2]
  IC50: 10.5 µM
[3]
  inhibition of growth at 20 µM: 87.4%
[4]
  inhibition of growth at 5 µM: 46.6%

## COc1cccc2c1C=[N+](c1cccc(C(F)(F)F)c1)CC2
[1]
  IC50: 9.61 µM
[2]
  IC50: 2.03 µM
[3]
  inhibition of growth at 20 µM: 78.3%
[4]
  inhibition of growth at 5 µM: 47.9%

## C[n+]1cc2c3c(ccc2c2ccc4cc5c(cc4c21)OCO5)OCO3 [SANGUINARIUM]
[1]
  IC50: 0.53 µM
[2]
  IC50: 1.51 µM
[3]
  inhibition of growth at 20 µM: 92.3%
[4]
  inhibition of growth at 5 µM: 88.5%
